Test results from PubChem BioAssay (NCI).
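Compound exposure: 48 hours, 5 concentrations, 96-well plates. GI50: concentration for 50% inhibition of growth. TGI: concentration producing complete growth inhibition.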

Experiments:
Assay in all cases: DTP human tumour cell line panel, 48 h
[1] = test system: U251 CNS
[2] = test system: HT29 colon
[3] = test system: EKVX NSCLC
[4] = test system: OVCAR-5 ovarian
[5] = test system: A549 NSCLC
[6] = test system: HCT-116 colon
[7] = test system: SN12C renal
[8] = test system: K-562 leukemia
[9] = test system: SK-OV-3 ovarian
[10] = test system: RPMI-8226 leukemia

Row | Compound | GI50 [1] | TGI [1] | GI50 [2] | TGI [2] | GI50 [3] | TGI [3] | GI50 [4] | TGI [4] | GI50 [5] | TGI [5] | GI50 [6] | TGI [6] | GI50 [7] | TGI [7] | GI50 [8] | TGI [8] | GI50 [9] | TGI [9] | GI50 [10] | TGI [10]
1 | O=c1c(Cl)nnc2sc3ccccc3n12 | 30.9 µM | 85.3 µM | 53.7 µM | > 100 µM | 24.2 µM | > 100 µM | 54.1 µM | > 100 µM | 39.7 µM | > 100 µM | 20.4 µM | 68.3 µM | 24.6 µM | > 100 µM | 26 µM | > 100 µM | 59.9 µM | > 100 µM | 27.9 µM | > 100 µM
2 | N[C@H]1C2C3CC4C5CC(C42)C1(c1ccccc1)C53 (stereo not given in full) |  | > 100 µM |  | > 100 µM |  | > 100 µM |  | > 100 µM |  | > 100 µM |  | > 100 µM |  | > 100 µM |  | > 100 µM |  | > 100 µM |  | > 100 µM
3 | NC(N)=NS(=O)(=O)c1ccc(NC(=O)c2cccc3c(Nc4ccc(S(=O)(=O)N=C(N)N)cc4)c4ccc(Cl)cc4nc23)cc1 |  | > 100 µM |  | > 100 µM |  | > 100 µM |  | > 100 µM |  | > 100 µM |  | > 100 µM |  | > 100 µM |  | > 100 µM |  | > 100 µM |  | > 100 µM
4 | COC(=O)[C@]12CC[C@@H](C)[C@H](C)[C@@H]1C1=CC[C@@H]3[C@@]4(C)CC(=O)[C@H](O)[C@@]5(C)COC(=C45)C[C@@]3(C)[C@]1(C)CC2 | 17.9 µM | 31.9 µM | 19.2 µM | 34.7 µM | 17.4 µM | 34.2 µM | 18.4 µM | 37.7 µM | 23.9 µM | 41.5 µM | 18.7 µM | 34.3 µM | 19 µM | 39.2 µM | 20.5 µM | 41.8 µM | 18.2 µM | 32.8 µM | 21 µM | 45.7 µM
5 | Cc1cc(Br)cc(C)c1NC(=O)C(=O)CC(=O)c1sc(-n2nc(-c3ccccc3)cc2-c2ccccc2)nc1C |  | > 100 µM |  | > 100 µM |  | > 100 µM |  | > 100 µM |  | > 100 µM |  | > 100 µM |  | > 100 µM |  | > 100 µM |  | > 100 µM |  | > 100 µM
6 | CCCCCCCCCCCCCCCCCCNC(=O)[C@H]1CSC(c2ccc(OC)c(F)c2)N1 (stereo not given in full) | 4.48 µM | 22.9 µM | 5.05 µM | > 41.4 µM | 3.93 µM | 17.2 µM | 3.55 µM | > 33.4 µM | 9.87 µM | 38.1 µM | 1.68 µM | 3.5 µM | 1.52 µM | 3.39 µM | 2 µM | 11.2 µM | > 42 µM | > 58 µM | 0.435 µM | 1.91 µM
7 | NNC(=O)/C(=C/c1cccc([N+](=O)[O-])c1)NC(=O)c1ccccc1 |  | > 100 µM |  | > 100 µM |  | > 100 µM |  | > 100 µM |  | > 100 µM |  | > 100 µM |  | > 100 µM |  | > 100 µM |  | > 100 µM |  | > 100 µM
8 | Cc1c(NC(=O)C(=O)N=NC(=O)c2ccncc2)c(O)c2ccccc2c1O |  | 28.1 µM |  | 44.9 µM |  | 19.9 µM |  | 30.8 µM |  | 30.2 µM |  | 30.1 µM |  | 24.3 µM |  | > 82 µM |  | > 88.9 µM |  | > 82 µM
